Source: publication PMC5047880, “Characterization of Linoleate 10-Hydratase of Lactobacillus plantarum and Novel Antifungal Metabolites” (Frontiers in Microbiology, 2016)

Experiments:
Test in all cases: activity of apoenzyme after addition of FAD, LC-APPI-MS
Assay type in all cases: biochemical
Settings in all cases: 0.2 mM FAD, 4°C, 24 h; linoleic acid as substrate, MES pH 6.1
[1] = target: T1, LAH of Lactobacillus reuteri (linoleate 10-hydratase, 10-LAH) (Limosilactobacillus reuteri, UniProt A0A1I9RYU8)
T1 construct: full length, 590 residues; His-tag from pET-28a(+) (NdeI/NotI); primers encode MYYSNGNY... and ...MEEQHLL
T1 sequence (A0A1I9RYU8 1-590): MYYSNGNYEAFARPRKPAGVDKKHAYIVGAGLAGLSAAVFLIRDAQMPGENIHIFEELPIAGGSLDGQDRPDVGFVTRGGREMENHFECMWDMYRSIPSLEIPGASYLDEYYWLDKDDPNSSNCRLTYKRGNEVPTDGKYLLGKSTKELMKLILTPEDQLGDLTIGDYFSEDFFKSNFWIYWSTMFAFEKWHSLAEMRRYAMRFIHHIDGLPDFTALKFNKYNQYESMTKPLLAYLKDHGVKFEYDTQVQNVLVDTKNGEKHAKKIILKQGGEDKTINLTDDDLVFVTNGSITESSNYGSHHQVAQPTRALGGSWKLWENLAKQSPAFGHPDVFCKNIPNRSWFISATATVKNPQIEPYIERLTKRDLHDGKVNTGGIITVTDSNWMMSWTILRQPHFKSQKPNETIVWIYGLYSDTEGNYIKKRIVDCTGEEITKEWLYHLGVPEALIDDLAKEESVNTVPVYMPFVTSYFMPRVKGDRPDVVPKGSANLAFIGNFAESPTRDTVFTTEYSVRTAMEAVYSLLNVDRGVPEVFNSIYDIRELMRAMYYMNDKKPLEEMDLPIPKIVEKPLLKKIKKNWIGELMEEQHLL

[2] = target: T2, LAH of Lactobacillus spicheri (linoleate 10-hydratase, 10-LAH) (Levilactobacillus spicheri, UniProt A0A0F3RUK6)
T2 construct: gene lai; full length, 564 residues; His-tag from pET-28a(+) (EcoRI/NotI); primers encode MVKTKAVM... and ...ATKKMFS
T2 sequence (A0A0F3RUK6 1-564): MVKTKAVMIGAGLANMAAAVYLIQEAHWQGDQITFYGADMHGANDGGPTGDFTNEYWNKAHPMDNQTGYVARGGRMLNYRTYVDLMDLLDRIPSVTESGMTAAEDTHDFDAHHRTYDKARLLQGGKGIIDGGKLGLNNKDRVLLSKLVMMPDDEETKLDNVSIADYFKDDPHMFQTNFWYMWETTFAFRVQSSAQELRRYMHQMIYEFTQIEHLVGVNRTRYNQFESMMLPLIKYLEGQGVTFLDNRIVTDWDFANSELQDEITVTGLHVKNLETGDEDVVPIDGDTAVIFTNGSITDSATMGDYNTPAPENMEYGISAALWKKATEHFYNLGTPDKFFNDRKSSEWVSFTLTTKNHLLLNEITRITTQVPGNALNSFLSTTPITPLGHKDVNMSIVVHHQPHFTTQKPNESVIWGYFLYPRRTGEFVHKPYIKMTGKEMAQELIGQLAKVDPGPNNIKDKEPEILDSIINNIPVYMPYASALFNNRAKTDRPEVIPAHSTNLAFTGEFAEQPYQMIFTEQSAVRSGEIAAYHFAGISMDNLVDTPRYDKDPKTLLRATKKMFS

[3] = target: T3, LAH of Lactobacillus hammesii (linoleate 10-hydratase, 10-LAH) (Levilactobacillus hammesii, UniProt A0A1I9RYV0)
T3 construct: full length, 564 residues; His-tag from pET-28a(+) (BamHI/HindIII); primers encode MVKTKAVM... and ...ATKRMFS
T3 sequence (A0A1I9RYV0 1-564): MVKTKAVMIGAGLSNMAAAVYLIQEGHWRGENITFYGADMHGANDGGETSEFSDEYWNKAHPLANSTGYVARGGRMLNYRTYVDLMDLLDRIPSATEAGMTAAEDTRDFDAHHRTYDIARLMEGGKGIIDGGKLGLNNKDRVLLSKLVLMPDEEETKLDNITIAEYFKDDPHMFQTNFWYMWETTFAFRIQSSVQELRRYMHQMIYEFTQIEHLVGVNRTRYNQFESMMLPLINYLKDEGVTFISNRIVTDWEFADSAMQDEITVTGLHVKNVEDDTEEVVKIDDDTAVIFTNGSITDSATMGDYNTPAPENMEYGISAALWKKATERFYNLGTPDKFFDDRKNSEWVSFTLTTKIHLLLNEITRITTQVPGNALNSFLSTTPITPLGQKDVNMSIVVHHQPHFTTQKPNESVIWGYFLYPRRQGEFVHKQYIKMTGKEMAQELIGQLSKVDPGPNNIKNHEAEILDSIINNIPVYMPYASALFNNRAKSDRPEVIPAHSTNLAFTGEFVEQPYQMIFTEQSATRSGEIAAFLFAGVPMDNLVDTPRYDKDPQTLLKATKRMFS

[4] = target: T4, LAH of Lactobacillus plantarum (linoleate 10-hydratase, 10-LAH) (Lactiplantibacillus plantarum, UniProt A0A1I9RYU9)
T4 construct: full length, 564 residues; His-tag from pET-28a(+) (EcoRI/NotI); primers encode MVKSKAIM... and ...ATKKMFD
T4 sequence (A0A1I9RYU9 1-564): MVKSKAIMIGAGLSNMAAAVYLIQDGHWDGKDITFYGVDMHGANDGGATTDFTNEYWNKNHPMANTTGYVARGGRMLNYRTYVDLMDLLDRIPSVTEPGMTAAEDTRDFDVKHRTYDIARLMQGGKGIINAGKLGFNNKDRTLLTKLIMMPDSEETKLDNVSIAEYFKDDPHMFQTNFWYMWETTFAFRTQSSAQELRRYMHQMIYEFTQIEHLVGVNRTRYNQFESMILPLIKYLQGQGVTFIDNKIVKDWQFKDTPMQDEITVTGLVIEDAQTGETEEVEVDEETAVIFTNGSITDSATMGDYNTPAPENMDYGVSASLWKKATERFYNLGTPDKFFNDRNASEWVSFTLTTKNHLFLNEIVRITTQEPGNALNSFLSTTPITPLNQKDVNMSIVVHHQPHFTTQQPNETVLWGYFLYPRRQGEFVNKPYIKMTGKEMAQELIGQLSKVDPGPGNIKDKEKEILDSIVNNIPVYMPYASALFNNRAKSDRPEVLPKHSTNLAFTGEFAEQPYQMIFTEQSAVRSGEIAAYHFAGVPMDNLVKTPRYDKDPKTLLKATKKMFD

## Cc1cc2nc3c(=O)[nH]c(=O)nc-3n(C[C@H](O)[C@H](O)[C@H](O)COP(=O)(O)OP(=O)(O)OC[C@H]3O[C@@H](n4cnc5c(N)ncnc54)[C@H](O)[C@@H]3O)c2cc1C [FAD]
[1]
  activity of apoenzyme after addition of FAD, LC-APPI-MS: The addition of cofactor FAD to apoenzyme was essential for activity
[2]
  activity of apoenzyme after addition of FAD, LC-APPI-MS: The addition of cofactor FAD to apoenzyme was essential for activity
[3]
  activity of apoenzyme after addition of FAD, LC-APPI-MS: The addition of cofactor FAD to apoenzyme was essential for activity
[4]
  activity of apoenzyme after addition of FAD, LC-APPI-MS: The addition of cofactor FAD to apoenzyme was essential for activity
